In general, EC50 refers to the concentration needed to bring the measured effect to its halfway point. Read a high EC50 as a less potent agent.

Data on 29 compounds can be found in patent US9409884B2 (Rigel Pharmaceuticals, Inc., priority 2012, dated 2016).

One experiment concerns the target AMPK. The experiment can be described thus: AMPK activation, enzyme-linked immunosorbent assay. Conditions: Table 8, compounds of Table 1. It counts as biochemical. The essentials:
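AMPK activation by test compounds was measured by enzyme-linked immunosorbent assay.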
In turn, `O=C(NC1CCN(Cc2cncnc2)CC1)c1ccc(OC2CCN(c3ccc(C(F)(F)F)cc3)CC2)cn1` [Compound 1-44, N-(1-(pyrimidin-5-ylmethyl)piperidin-4-yl)-5-(1-(4-(trifluoromethyl)phenyl)piperidin-4-yloxy)picolinamide] gave an EC50 of 100 to 500 nM.
On the same count and under the same terms, to `O=C(N[C@H]1CCN(Cc2cccnc2)C1)c1cc2cc(OC3CCN(Cc4ccc(Cl)cc4)CC3)ccc2o1` [Compound 1-130, (S)-5-(1-(4-chlorobenzyl)piperidin-4-yloxy)-N-(1-(pyridin-3-ylmethyl)pyrrolidin-3-yl)benzofuran-2-carboxamide] belongs 1000 to 5000 nM; to `CS(=O)(=O)c1ccc(CN2CCC(Oc3ccc4oc(C(=O)NC5CCN(Cc6ccc(C#N)cc6)CC5)cc4c3)CC2)cc1` [Compound 1-175, N-(1-(4-cyanobenzyl)piperidin-4-yl)-5-(1-(4-(methylsulfonyl)benzyl)piperidin-4-yloxy)benzofuran-2-carboxamide], less than 100 nM; to `O=C(N[C@H]1CCNC1)c1ccc(OC2CCN(c3ccc(C(F)(F)F)cc3)CC2)cn1` [Compound 1-27, (S)-N-(pyrrolidin-3-yl)-5-(1-(4-(trifluoromethyl)phenyl)piperidin-4-yloxy)picolinamide], greater than 10000 nM.
`O=C(N[C@@H]1CCN(S(=O)(=O)c2cccnc2)C1)c1cc2cc(OC3CCN(c4ccc(C(F)(F)F)cc4)CC3)ccc2o1` [Compound 1-126, (R)-N-(1-(pyridin-3-ylsulfonyl)pyrrolidin-3-yl)-5-(1-(4-(trifluoromethyl)phenyl)piperidin-4-yloxy)benzofuran-2-carboxamide] gave an EC50 of 1000 to 5000 nM.
Still for that read-out and setting: next, `O=C(NC1CCN(Cc2ccncc2)CC1)c1cc2cc(OC3CCN(c4ccc(C(F)(F)F)cc4)CC3)ccc2o1` [Compound 1-76, N-(1-(pyridin-4-ylmethyl)piperidin-4-yl)-5-(1-(4-(trifluoromethyl)phenyl)piperidin-4-yloxy)benzofuran-2-carboxamide]: 100 to 500 nM; `Cc1c(C(=O)NC2CCNCC2)oc2cc(OC3CCN(c4ccc(C(F)(F)F)cc4)CC3)ccc12` [Compound 1-62, 3-methyl-N-(piperidin-4-yl)-6-(1-(4-(trifluoromethyl)phenyl)piperidin-4-yloxy)benzofuran-2-carboxamide]: 5000 to 10000 nM.

The same experiment, now with this note: Table 9, compounds of Table 2.
`Cn1c2c(c3cc(C(=O)NC4CCN(Cc5ccc(C#N)cc5)CC4)ccc31)CN(Cc1ccc(C(F)(F)F)cc1)CC2` [Compound 2-16, N-(1-(4-cyanobenzyl)piperidin-4-yl)-5-methyl-2-(4-(trifluoromethyl)benzyl)-2,3,4,5-tetrahydro-1H-pyrido[4,3-b]indole-8-carboxamide] registered an EC50 of less than 500 nM.
Still for that read-out and setting: next, `NC(=O)c1ccc(CN2CCC(NC(=O)c3ccc4[nH]c5c(c4c3)CN(Cc3ccc(C(F)(F)F)cc3)CC5)CC2)cc1` [Compound 2-52, N-(1-(4-carbamoylbenzyl)piperidin-4-yl)-2-(4-(trifluoromethyl)benzyl)-2,3,4,5-tetrahydro-1H-pyrido[4,3-b]indole-8-carboxamide]: 1000 to 5000 nM.

The experiment is the same for the next values; noted with them: Table 10, compounds of Table 3.
Compound `CC(C)(C)OC(=O)N1CCC(NC(=O)c2nc3ccc(OC4CCN(c5ccc(C(F)(F)F)cc5)CC4)cc3o2)CC1` [Compound 3-1, tert-butyl 4-(6-(1-(4-(trifluoromethyl)phenyl)piperidin-4-yloxy)benzo[d]oxazole-2-carboxamido)piperidine-1-carboxylate] had an EC50 of less than 100 nM.
On the same count and under the same terms, to `N#Cc1ccc(CN2CCC(NC(=O)c3cnc(OC4CCN(c5ccc(C(F)(F)F)cc5)CC4)cn3)CC2)cc1` [Compound 3-22, N-(1-(4-cyanobenzyl)piperidin-4-yl)-5-(1-(4-(trifluoromethyl)phenyl)piperidin-4-yloxy)pyrazine-2-carboxamide] belongs less than 100 nM.

The same experiment, now with this note: Table 12, compounds of Table 5.
As for `O=C(NC1CCN(Cc2ccc(F)cc2)CC1)c1ccc(OC2CCN(Cc3ccc(Cl)cc3)CC2)c(Cl)c1` [Compound 5-66, 3-chloro-4-(1-(4-chlorobenzyl)piperidin-4-yloxy)-N-(1-(4-fluorobenzyl)piperidin-4-yl)benzamide], the EC50 was less than 1000 nM.
On the same count and under the same terms, to `COc1cc(C(=O)NCCCNC(=O)OC(C)(C)C)ccc1OC1CCN(Cc2ccc(C(F)(F)F)cc2)CC1` [Compound 5-94, tert-butyl 3-(3-methoxy-4-(1-(4-(trifluoromethyl)benzyl)piperidin-4-yloxy)benzamido) propylcarbamate] belongs less than 1000 nM.

Still in this experiment, the particulars now being: Table 13, compounds of Table 6.
Compound `N#Cc1ccc(CN2CCC(NC(=O)c3cc4cc(C(=O)N5CCN(Cc6ccc(F)cc6)CC5)ccc4o3)CC2)cc1` [Compound 6-11, N-(1-(4-cyanobenzyl)piperidin-4-yl)-5-(4-(4-fluorobenzyl)piperazine-1-carbonyl)benzofuran-2-carboxamide] had an EC50 of less than 100 nM.
Same read-out and setting: to `COc1ccc(CN2CCC(NC(=O)c3cc4ccc(C(=O)N5CCN(Cc6ccc(S(C)(=O)=O)cc6)CC5)cc4o3)CC2)cc1F` [Compound 6-5, N-(1-(3-fluoro-4-methoxybenzyl)piperidin-4-yl)-6-(4-(4-(methylsulfonyl)benzyl)piperazine-1-carbonyl) benzofuran-2-carboxamide] belongs less than 100 nM; to `N#Cc1ccc(CN2CCC(NC(=O)c3cc4cc(C(=O)NC5CCN(Cc6ccc(-n7cccn7)cc6)CC5)ccc4o3)CC2)cc1` [Compound 6-92, N5-(1-(4-(lH-pyrazol-1-yl)benzyl)piperidin-4-yl)-N2-(1-(4-cyanobenzyl)piperidin-4-yl)benzofuran-2,5-dicarboxamide], 100 to 1000 nM; to `O=C(NC1CCN(Cc2ccncc2)CC1)c1cc2cc(C(=O)N3CCC(Oc4ccc(F)cc4)CC3)ccc2o1` [Compound 6-18, 5-(4-(4-fluorophcnoxy)piperidine-1-carbonyl)-N-(1-(pyridin-4-ylmethyl)piperidin-4-yl)benzofuran-2-carboxamide], less than 100 nM.
On the same count and under the same terms, next, `COc1cc(CN2CCC(NC(=O)c3cc4cc(C(=O)N5CCN(Cc6ccc(S(C)(=O)=O)cc6)CC5)ccc4o3)CC2)ccc1F` [Compound 6-98, N-(1-(4-fluoro-3-methoxybenzyl)piperidin-4-yl)-5-(4-(4-(methylsulfonyl)benzyl)piperazine-1-carbonyl) benzofiiran-2-carboxamide]: 100 to 1000 nM.
The same measure, in the same setting: to `COc1ccc(CN2CCC(NC(=O)c3cc4cc(C(=O)N5CCN(Cc6ccc(S(C)(=O)=O)cc6)CC5)ccc4o3)CC2)cc1F` [Compound 6-154, N-(1-(3-fluoro-4-methoxybenzyl)piperidin-4-yl)-5-(4-(4-(methylsulfonyl)benzyl)piperazine-1-carbonyl) benzofuran-2-carboxamide] belongs less than 100 nM; to `COc1ccc(CN2CCC(NC(=O)c3cc4cc(C(=O)N5CCN(Cc6ccc(-n7cccn7)cc6)CC5)ccc4o3)CC2)cc1` [Compound 6-96, 5-(4-(4-(1H-pyrazol-1-yl)benzyl)piperazine-1-carbonyl)-N-(1-(4-methoxybenzyl)piperidin-4-yl)benzofuran-2-carboxamide], less than 100 nM.
With `COc1ccc(CN2CCC(NC(=O)c3cc4cc(C(=O)N5CCN(Cc6ccc(Br)c(S(C)(=O)=O)c6)CC5)ccc4o3)CC2)cc1F` [Compound 6-143, 5-(4-(4-bromo-3-(methylsulfonyl)benzyl)piperazine-1-carbonyl)-N-(1-(3-fluoro-4-methoxybenzyl)piperidin-4-yl)benzofuran-2-carboxamide], the EC50 is less than 100 nM.
Still for that read-out and setting: next, `CS(=O)(=O)c1ccc(N2CCN(C(=O)c3ccc4oc(C(=O)NC5CCN(Cc6ccc(C#N)cc6)CC5)cc4c3)CC2)cc1` [Compound 6-87, N-(1-(4-cyanobenzyl)piperidin-4-yl)-5-(4-(4-(methylsulfonyl)phenyl)piperazine-1-carbonyl) benzofuran-2-carboxamide]: 100 to 1000 nM.
The same measure, in the same setting: next, `N#Cc1ccc(CN2CCC(NC(=O)c3cc4cc(NC(=O)c5ccc(-c6nnc[nH]6)cc5)ccc4o3)CC2)cc1` [Compound 6-60, 5-(4-(4H-1,2,4-triazol-3-yl)benzamido)-N-(1-(4-cyanobenzyl)piperidin-4-yl)benzofuran-2-carboxamide]: 1000 to 10000 nM.

The experiment is the same for the next values; noted with them: Table 14, compounds of Table 7.
Consider `COc1ccc(C(=O)C2CCN(C(=O)c3ccc(C(=O)NC4CCN(Cc5ccc(F)c(OC)c5)C[C@@H]4C)cn3)CC2)cc1` (stereo partly drawn) [Compound 7-97, N-((3,4-cis)-1-(4-fluoro-3-methoxybenzyl)-3-methylpiperidin-4-yl)-6-(4-(4-methoxybenzoyl)piperidine-1-carbonyl)nicotinamide], for which the EC50 is less than 1000 nM.
Turning to `CS(=O)(=O)c1ccc(C(=O)C2CCN(C(=O)c3ccc(C(=O)NC4CCN(Cc5ccc(OC(F)(F)F)cc5)C[C@H]4F)cn3)CC2)cc1` (stereo partly drawn) [Compound 7-61, N-((3,4-trans)-3-fluoro-1-(4-(trifluoromethoxy)benzyl)piperidin-4-yl)-6-(4-(4-(methylsulfonyl)benzoyl)piperidine-1-carbonyl) nicotinamide], the EC50 lay within 1000 to 10000 nM.
Still for that read-out and setting: next, `COc1ccc(C(=O)C2CCN(C(=O)c3ccc(C(=O)NC4CCN(Cc5ccc(OC(F)(F)F)cc5)C[C@@H]4C)cn3)CC2)cc1` (stereo partly drawn) [Compound 7-94, 6-(4-(4-methoxybenzoyl)piperidine-1-carbonyl)-N-((3,4-cis)-3-methyl-1-(4-(trifluoromethoxy)benzyl)piperidin-4-yl)nicotinamide]: less than 1000 nM; `COc1ccc(C(=O)C2CCN(C(=O)c3ccc(C(=O)NC4CCN(Cc5ccc(F)c(C)c5)C[C@H]4F)cn3)CC2)cc1` (stereo partly drawn) [Compound 7-37, N-((3,4-trans)-3-fluoro-1-(4-fluoro-3-methylbenzyl)piperidin-4-yl)-6-(4-(4-methoxybenzoyl)piperidine-1-carbonyl)nicotinamide]: less than 1000 nM; `COc1ccc(CN2CCC(NC(=O)c3ccc(C(=O)N4CCC(C(=O)c5ccc(OC)cc5)CC4)nc3)[C@H](F)C2)cc1` (stereo partly drawn) [Compound 7-26, N-((3,4-trans)-3-fluoro-1-(4-methoxybenzyl)piperidin-4-yl)-6-(4-(4-methoxybenzoyl)piperidine-1-carbonyl)nicotinamide]: less than 1000 nM.
On the same count and under the same terms, next, `O=C(Nc1ccc(Oc2ccc(S(F)(F)(F)(F)F)cc2)nc1)c1ccc(C(=O)N2CCC(C(=O)c3ccc(N4CCCC4)cc3)CC2)cn1` [Compound 7-4, 5-(4-(4-(pyrrolidin-1-yl)benzoyl)piperidine-1-carbonyl)-N-(6-(4-(pentafluorosulfanyl)phenoxy)pyridin-3-yl)picolinamide]: less than 1000 nM.
